From ChEMBL document CHEMBL1201862, “PubChem BioAssay data set” (2004)
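In this assay, cells in 96-well plates receive the compound at five concentrations for 48 hours. Endpoints are linearly interpolated between the surrounding concentrations. GI50: concentration for 50% inhibition of growth.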 Calls of active or inactive are those of the source. Rule as the data show it: active = GI50 up to about 1.1 µM and inactive = higher.

Assays:
Assay in all cases: NCI tumour cell line growth inhibition, 48 h
UACC-62 = tested on: UACC-62
K562 = tested on: K562
M14 = tested on: M14
CCRF-CEM = tested on: CCRF-CEM
CAKI-1 = tested on: CAKI-1
SK-MEL-28 = tested on: SK-MEL-28
SNB-19 = tested on: SNB-19
HOP-92 = tested on: HOP-92
RXF 393 = tested on: RXF 393
HT-29 = tested on: HT-29
OVCAR-4 = tested on: OVCAR-4
HCT-15 = tested on: HCT-15
A498 = tested on: A498
SK-MEL-2 = tested on: SK-MEL-2
HCC 2998 = tested on: HCC 2998
MOLT-4 = tested on: MOLT-4
SW-620 = tested on: SW-620
IGROV-1 = tested on: IGROV-1
SF-268 = tested on: SF-268
ACHN = tested on: ACHN

Measured: GI50

CCOC(=O)NC(=O)c1cn(C2CCCCC2)c(=O)n(C)c1=O
inactive: UACC-62 > 100 µM | K562 > 100 µM | M14 > 100 µM | CCRF-CEM > 100 µM | CAKI-1 > 100 µM | SK-MEL-28 > 100 µM | SNB-19 > 100 µM | HOP-92 > 100 µM | RXF 393 > 100 µM | HT-29 > 100 µM | OVCAR-4 > 100 µM | A498 > 100 µM | SK-MEL-2 > 100 µM | HCC 2998 > 100 µM | MOLT-4 > 100 µM | SW-620 > 100 µM | IGROV-1 > 100 µM | SF-268 > 100 µM | ACHN > 100 µM
> 100 µM: HCT-15
